The source of these data is US20200239530A1, “COMPOUNDS AND METHODS OF MODULATING PROTEIN DEGRADATION” (Vividion Therapeutics, Inc., priority 2017, published 2020).

Holding throughout (assay type): binding
Test [1] deals with T1, cysteine residue illustrated in Table 1A or Table 2A (Homo sapiens, UniProt Q5VU92).
T1 construct: Cells were resuspended in cold PBS on ice and sonicated with a probe sonicator to achieve lysis; endogenous in cells
Briefly: Competitive cysteine profiling of cell lysate with desthiobiotin iodoacetamide probe (96-well sample prep). To be noted: UniProt Q5VU92. The method, boiled down: (§1)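 Competitive profiling: compound and lysate (5 mg/ml protein) incubated 1 h at 25 °C before a 1 h, 25 °C desthiobiotin iodoacetamide probe step. Proteins were acetone-precipitated, reduced, alkylated and trypsinized; streptavidin-captured labelled peptides were eluted for MS analysis.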

A further test has as its target T2, Q8N961 (Homo sapiens, UniProt Q8N961).
T2 construct: Cells were resuspended in cold PBS on ice and sonicated with a probe sonicator to achieve lysis; endogenous in cells
Briefly: Competitive cysteine profiling, probe competition (Table 2B). The source says: (§2) The following 96-well sample prep protocol was used for sample preparation.

The target in a further test is T3, A6QL63 (Homo sapiens, UniProt A6QL63).
T3 construct: 200 μL of lysate containing 5 mg/ml proteome was treated with 2 μL of 100× compound stock; endogenous in cells
The description is as above. To be noted: read-out: KB02_100 uM_percent_inhibition.
From the text: as §2

In another test the target is T4, Q9NR09 (Homo sapiens, UniProt Q9NR09).
T4 construct: endogenous in cells
Described as above. To be noted: 100 uM.
From the text: as §2

The target of test [2] is T5, cysteine residue illustrated in Table 1A or Table 2A (Homo sapiens, UniProt Q7Z6J8).
T5 construct: Cells were resuspended in cold PBS on ice and sonicated with a probe sonicator to achieve lysis; endogenous in cells
Briefly: Competitive cysteine profiling of cell lysate with desthiobiotin iodoacetamide probe (96-well sample prep). To be noted: UniProt Q7Z6J8; KB05 100 uM. The method, boiled down: as §1

For test [3], the target named is T6, cysteine residue illustrated in Table 1A or Table 2A (Homo sapiens, UniProt Q86Y01).
T6 construct: Cells were resuspended in cold PBS on ice and sonicated with a probe sonicator to achieve lysis; endogenous in cells
T6 sequence (Q86Y01 whole entry): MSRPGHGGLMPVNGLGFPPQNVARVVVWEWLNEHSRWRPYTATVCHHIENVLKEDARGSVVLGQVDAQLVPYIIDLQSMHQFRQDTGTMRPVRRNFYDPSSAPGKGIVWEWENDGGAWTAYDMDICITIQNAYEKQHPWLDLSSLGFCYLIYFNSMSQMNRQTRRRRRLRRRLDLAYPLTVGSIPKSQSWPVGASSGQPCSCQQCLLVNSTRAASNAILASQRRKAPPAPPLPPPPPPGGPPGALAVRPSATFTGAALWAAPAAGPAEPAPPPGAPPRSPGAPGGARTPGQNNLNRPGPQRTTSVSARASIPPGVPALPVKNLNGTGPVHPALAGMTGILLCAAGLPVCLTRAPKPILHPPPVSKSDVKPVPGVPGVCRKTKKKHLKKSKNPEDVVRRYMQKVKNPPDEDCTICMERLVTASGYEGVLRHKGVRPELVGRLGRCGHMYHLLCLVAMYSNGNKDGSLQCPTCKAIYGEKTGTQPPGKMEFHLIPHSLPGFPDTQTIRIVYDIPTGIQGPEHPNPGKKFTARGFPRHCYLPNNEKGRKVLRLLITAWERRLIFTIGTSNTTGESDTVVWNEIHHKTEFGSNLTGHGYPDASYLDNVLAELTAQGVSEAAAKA
The description is as above. As to conditions: UniProt Q86Y01; 100 uM. In short, it runs like this:
as §1

Test [4] deals with T7, cysteine residue illustrated in Table 1A or Table 2A (Homo sapiens, UniProt P41002).
T7 construct: Cells were resuspended in cold PBS on ice and sonicated with a probe sonicator to achieve lysis; endogenous in cells
T7 sequence (P41002 whole entry): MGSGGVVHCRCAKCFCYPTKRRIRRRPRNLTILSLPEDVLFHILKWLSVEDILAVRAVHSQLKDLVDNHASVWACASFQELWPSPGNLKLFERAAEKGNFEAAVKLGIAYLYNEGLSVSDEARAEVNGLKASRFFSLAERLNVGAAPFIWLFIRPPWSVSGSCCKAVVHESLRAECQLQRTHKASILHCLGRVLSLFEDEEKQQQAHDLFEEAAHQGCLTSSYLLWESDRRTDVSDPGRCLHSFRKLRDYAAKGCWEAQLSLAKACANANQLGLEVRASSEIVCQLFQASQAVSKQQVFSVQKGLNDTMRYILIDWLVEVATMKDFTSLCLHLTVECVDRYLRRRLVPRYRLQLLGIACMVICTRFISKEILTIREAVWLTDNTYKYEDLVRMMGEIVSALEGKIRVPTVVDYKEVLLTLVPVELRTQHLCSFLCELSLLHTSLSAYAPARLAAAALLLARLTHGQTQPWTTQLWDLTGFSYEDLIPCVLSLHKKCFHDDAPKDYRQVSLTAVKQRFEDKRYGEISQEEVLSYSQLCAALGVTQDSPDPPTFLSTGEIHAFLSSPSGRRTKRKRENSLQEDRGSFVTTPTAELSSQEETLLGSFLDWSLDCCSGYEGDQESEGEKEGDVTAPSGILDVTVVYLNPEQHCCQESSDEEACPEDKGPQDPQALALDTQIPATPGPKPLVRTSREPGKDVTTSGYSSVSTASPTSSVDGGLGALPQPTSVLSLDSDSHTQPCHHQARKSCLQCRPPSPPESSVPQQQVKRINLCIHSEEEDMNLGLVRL
Described as above. As to conditions: UniProt P41002; 100 uM. In short, it runs like this: as §1

For the next test, the target named is T8, Q96Q27 (Homo sapiens, UniProt Q96Q27).
T8 construct: endogenous in cells
Briefly: Competitive cysteine profiling, probe competition (Table 2B). As to conditions: read-out: KB05_100 uM_percent_inhibition.
From the text: as §2

The next test has as its target T9, Q969K4 (Homo sapiens, UniProt Q969K4).
T9 construct: Cells were resuspended in cold PBS on ice and sonicated with a probe sonicator to achieve lysis; endogenous in cells
The test is described as above. As to conditions: read-out: KB05_100 uM_percent_inhibition.
From the text: as §2

Test [5] deals with T10, cysteine residue illustrated in Table 1A or Table 2A (Homo sapiens, UniProt Q13617).
T10 construct: Cells were resuspended in cold PBS on ice and sonicated with a probe sonicator to achieve lysis; endogenous in cells
Briefly: Competitive cysteine profiling of cell lysate with desthiobiotin iodoacetamide probe (96-well sample prep). To be noted: UniProt Q13617; 100 uM. In short, it runs like this:
as §1

For test [6], the target named is T11, cysteine residue illustrated in Table 1A or Table 2A (Homo sapiens, UniProt P10074).
T11 construct: Cells were resuspended in cold PBS on ice and sonicated with a probe sonicator to achieve lysis; endogenous in cells
The description is as above. As to conditions: UniProt P10074; KB03 100 uM. The method, boiled down:
as §1

The target in test [7] is T12, cysteine residue illustrated in Table 1A or Table 2A (Homo sapiens, UniProt Q6FIF0).
T12 construct: Cells were resuspended in cold PBS on ice and sonicated with a probe sonicator to achieve lysis; endogenous in cells
T12 sequence (Q6FIF0 whole entry): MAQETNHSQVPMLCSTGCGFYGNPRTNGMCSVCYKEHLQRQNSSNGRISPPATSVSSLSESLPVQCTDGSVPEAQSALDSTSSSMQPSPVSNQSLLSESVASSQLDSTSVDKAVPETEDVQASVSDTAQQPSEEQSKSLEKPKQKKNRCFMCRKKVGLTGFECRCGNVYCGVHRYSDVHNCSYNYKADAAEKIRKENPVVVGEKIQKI
Described as above. To be noted: UniProt Q6FIF0; KB03 100 uM. In short, it runs like this:
as §1

For test [8], the target named is T13, cysteine residue illustrated in Table 1A or Table 2A (Homo sapiens, UniProt Q58WW2).
T13 construct: Cells were resuspended in cold PBS on ice and sonicated with a probe sonicator to achieve lysis; endogenous in cells
T13 sequence (Q58WW2 whole entry): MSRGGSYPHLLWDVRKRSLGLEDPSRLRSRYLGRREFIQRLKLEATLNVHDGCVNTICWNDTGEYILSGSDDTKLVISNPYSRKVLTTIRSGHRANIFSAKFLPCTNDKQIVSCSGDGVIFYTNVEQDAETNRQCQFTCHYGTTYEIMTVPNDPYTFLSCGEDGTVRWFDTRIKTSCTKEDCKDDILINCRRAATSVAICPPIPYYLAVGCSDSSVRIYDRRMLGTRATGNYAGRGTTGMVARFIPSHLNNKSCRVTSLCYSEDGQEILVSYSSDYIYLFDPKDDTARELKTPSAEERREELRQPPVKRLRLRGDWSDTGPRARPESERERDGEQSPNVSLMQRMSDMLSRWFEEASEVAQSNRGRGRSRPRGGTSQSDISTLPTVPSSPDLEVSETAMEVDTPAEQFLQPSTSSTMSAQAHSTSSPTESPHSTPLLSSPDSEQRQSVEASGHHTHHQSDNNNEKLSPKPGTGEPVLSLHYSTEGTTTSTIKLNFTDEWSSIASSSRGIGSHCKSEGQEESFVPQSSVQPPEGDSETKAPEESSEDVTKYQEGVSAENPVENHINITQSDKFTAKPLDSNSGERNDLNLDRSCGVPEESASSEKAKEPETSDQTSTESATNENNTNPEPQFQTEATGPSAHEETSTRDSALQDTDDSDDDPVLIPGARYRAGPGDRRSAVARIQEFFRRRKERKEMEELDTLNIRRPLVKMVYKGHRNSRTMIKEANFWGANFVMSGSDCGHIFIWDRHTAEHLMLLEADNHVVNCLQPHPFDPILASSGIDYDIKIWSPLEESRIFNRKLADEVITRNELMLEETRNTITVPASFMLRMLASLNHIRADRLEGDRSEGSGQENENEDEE
Described as above. As to conditions: UniProt Q58WW2; 100 uM. The method, boiled down:
as §1

A further test deals with T14, Q9Y576 (Homo sapiens, UniProt Q9Y576).
T14 construct: endogenous in cells
T14 sequence (Q9Y576 whole entry): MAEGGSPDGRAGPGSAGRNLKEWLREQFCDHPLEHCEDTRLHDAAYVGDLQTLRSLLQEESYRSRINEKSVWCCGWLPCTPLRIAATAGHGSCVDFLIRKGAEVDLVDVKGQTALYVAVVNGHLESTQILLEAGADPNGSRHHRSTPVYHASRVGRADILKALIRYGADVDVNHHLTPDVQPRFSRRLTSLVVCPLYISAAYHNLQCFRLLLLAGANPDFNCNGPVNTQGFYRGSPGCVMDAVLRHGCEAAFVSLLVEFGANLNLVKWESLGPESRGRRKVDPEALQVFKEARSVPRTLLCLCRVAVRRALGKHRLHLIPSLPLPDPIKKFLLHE
Briefly: Competitive cysteine profiling, probe competition (Table 2B). To be noted: 100 uM.
From the text: as §2

T1 sequence (Q5VU92 whole entry): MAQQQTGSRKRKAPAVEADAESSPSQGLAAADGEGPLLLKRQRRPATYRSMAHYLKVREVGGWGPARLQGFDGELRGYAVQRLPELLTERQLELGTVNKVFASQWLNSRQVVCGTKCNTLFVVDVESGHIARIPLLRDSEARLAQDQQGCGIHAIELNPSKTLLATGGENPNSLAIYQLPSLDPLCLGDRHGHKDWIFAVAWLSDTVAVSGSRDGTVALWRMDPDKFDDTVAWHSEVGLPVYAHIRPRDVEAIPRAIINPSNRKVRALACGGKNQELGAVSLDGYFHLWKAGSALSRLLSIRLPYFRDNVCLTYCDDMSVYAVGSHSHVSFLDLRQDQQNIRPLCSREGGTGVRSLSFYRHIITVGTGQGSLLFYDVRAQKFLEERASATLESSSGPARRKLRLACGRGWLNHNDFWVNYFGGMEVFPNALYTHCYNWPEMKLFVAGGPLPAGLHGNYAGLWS
T2 sequence (Q8N961 whole entry): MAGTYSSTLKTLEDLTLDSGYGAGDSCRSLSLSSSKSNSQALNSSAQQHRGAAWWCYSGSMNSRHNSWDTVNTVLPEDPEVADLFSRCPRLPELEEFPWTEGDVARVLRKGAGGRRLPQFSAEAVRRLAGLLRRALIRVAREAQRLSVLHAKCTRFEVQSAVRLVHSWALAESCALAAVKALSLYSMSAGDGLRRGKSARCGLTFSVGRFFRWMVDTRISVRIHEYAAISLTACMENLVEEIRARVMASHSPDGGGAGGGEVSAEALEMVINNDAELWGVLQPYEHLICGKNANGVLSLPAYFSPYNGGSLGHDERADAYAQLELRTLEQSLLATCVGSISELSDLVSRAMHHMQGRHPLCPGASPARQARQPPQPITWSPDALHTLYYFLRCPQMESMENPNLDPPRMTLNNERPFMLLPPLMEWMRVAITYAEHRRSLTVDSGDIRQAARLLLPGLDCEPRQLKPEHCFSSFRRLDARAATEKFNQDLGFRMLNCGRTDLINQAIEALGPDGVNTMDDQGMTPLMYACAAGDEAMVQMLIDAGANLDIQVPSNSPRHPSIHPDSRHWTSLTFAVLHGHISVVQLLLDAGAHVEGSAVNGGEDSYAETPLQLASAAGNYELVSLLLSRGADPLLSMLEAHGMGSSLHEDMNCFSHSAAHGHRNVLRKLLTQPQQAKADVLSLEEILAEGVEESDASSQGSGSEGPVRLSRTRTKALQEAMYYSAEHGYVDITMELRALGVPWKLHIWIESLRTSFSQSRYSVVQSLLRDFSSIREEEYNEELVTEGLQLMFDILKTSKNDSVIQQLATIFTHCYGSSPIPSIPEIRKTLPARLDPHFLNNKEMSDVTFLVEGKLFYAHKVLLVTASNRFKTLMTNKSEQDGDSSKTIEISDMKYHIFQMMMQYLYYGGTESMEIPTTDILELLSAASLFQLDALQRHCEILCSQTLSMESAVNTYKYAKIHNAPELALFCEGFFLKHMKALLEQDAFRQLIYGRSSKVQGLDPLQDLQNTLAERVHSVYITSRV
T9 sequence (Q969K4 whole entry): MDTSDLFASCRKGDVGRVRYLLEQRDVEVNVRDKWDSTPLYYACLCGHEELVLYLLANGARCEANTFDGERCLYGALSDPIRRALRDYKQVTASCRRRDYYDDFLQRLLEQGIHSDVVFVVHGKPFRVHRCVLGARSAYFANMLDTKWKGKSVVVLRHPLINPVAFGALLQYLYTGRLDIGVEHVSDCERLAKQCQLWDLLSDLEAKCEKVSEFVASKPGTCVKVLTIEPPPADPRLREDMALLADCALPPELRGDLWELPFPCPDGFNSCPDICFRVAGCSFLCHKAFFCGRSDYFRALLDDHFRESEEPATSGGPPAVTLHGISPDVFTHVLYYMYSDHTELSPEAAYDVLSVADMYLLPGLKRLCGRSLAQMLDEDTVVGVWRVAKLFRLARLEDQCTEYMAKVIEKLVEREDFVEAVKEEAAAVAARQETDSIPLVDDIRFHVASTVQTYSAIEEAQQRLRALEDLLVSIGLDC

For the molecule `COc1ccc2c(c1)CCCN2C(=O)CCl` [KB02], the “KB02_100 uM_percent_inhibition” value is listed as 25% in [1] (100 uM), 60% on Q8N961 (100 uM) and 24% on Q9NR09. Also, in test [1] (500 uM), the “KB02_500 uM_percent_inhibition” value is reported as 29%. Besides, the inhibition at 100 µM stood at 52% at Q8N961 (read-out: KB02_100 uM_percent_inhibition) and 9% at A6QL63.
As for `C=CC(=O)N(c1ccccc1)c1ccc(Br)cc1` [KB05], the “KB05_100 uM_percent_inhibition” value in test [2] was found to be 13%; in test [3] it was 17%; in test [4], 49%. In addition, the inhibition at 100 µM turned out to be 36% at Q96Q27 and 3% on Q969K4.
Take `O=C(CCl)Nc1cc(C(F)(F)F)cc(C(F)(F)F)c1` [KBO3]: the “KB03_100 uM_percent_inhibition” value in test [5] amounted to 30%; in test [6], 24%; in test [7] it was 8%; in test [8], 67%; at Q9Y576, 51%.
